The text below walks through data of patent publication US20110098296A1, “Thiazole And Oxazole Kinase Inhibitors” (priority 2007, published 2011).

In one test the target is T1, EGFR (Homo sapiens, UniProt P00533).
T1 construct: made in house; host or cells: baculovirus expression system
As to the kind of experiment: EGFR substrate phosphorylation assay (HTRF). As to conditions: Method (A): Enzyme Mix incubated with compound at 20° C. for 1 hr, reaction started by adding Substrate Mix. The class given is biochemical. The gist of the method: (§1)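 Baculovirus-expressed kinase (0.8 nM EGFR or 10 nM ErbB2 in enzyme mix) with Peptide C 0.8 μM and ATP 20 μM (substrate-mix levels), MOPS pH 7.5, MnCl2; 90 min, 20 °C, HTRF anti-phosphotyrosine. Method A adds 1 h enzyme–compound preincubation; B none. pIC50, final compound 0.00027–47.6 μM.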
In general terms: Time-resolved FRET reads energy transfer from a long-lived donor to a nearby acceptor.

A further test addresses T2, ErbB2 (Homo sapiens, UniProt P04626).
T2 construct: made in house; host or cells: baculovirus expression system
As to the kind of experiment: ErbB-2 substrate phosphorylation assay (HTRF). As to conditions: Method (A): Enzyme Mix incubated with compound at 20° C. for 1 hr, reaction started by adding Substrate Mix. It counts as biochemical. The gist of the method: as §1

The next test relates to HN5 tumor cells. Description: Method C: Cell Growth Inhibition Assay (CellTiter-Glo), HN5. It counts as cell-based. As to conditions: Homo sapiens, 72 h, 3 days, 4-parameter fit. The procedure, abridged: (§2)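 Growth inhibition is expressed as the concentration giving 50% inhibition relative to vehicle controls, derived from a 4-parameter fit. Tumor cells plated at 500 per well were exposed for 3 days to compound (0.2% DMSO) before total ATP was quantified by CellTiter-Glo.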
For orientation: In ATP-based viability assays light output follows the ATP content of the culture.

In another test the test system is BT474 tumor cells. Description: Method C: Cell Growth Inhibition Assay (CellTiter-Glo), BT474. It counts as cell-based. As to conditions: Homo sapiens, BT-474, 72 h, 3 days, 4-parameter fit.
The next test has as its system Colo205 tumor cells. Description: Method C: Cell Growth Inhibition Assay (CellTiter-Glo), Colo205. As to conditions: Homo sapiens, COLO 205, 72 h, 3 days, 4-parameter fit. It counts as cell-based. The procedure, abridged:
(§3)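 Cells plated at 500 cells/well, dosed next day with 10-point 1:3 dilution series (0.2% final DMSO) and grown 3 days at 37 °C, 5% CO2. CellTiter-Glo luminescence (total ATP) served as cell-number surrogate; inhibition relative to DMSO controls, IC50 interpolated by 4-parameter fit.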

A further test concerns SK-MEL-28 tumor cells. As to the kind of experiment: Method C: Cell Growth Inhibition Assay (CellTiter-Glo), SK-MEL-28. It counts as cell-based. As to conditions: Homo sapiens, SK-MEL-28, 72 h, 3 days, 4-parameter fit. The gist of the method:
as §2

Another test relates to A375P F11s tumor cells. Description: Method C: Cell Growth Inhibition Assay (CellTiter-Glo), A375P F11s. It counts as cell-based. As to conditions: Homo sapiens, 72 h, 3 days, 4-parameter fit. The procedure, abridged: as §2
In a further test the test system is HT-29 tumor cells. As to the kind of experiment: Method C: Cell Growth Inhibition Assay (CellTiter-Glo), HT-29. It counts as cell-based. As to conditions: Homo sapiens, HT-29, 72 h, 3 days, 4-parameter fit. The procedure, abridged:
as §2

A further test concerns SK-MEL-3 tumor cells. As to the kind of experiment: Method C: Cell Growth Inhibition Assay (CellTiter-Glo), SK-MEL-3. The class given is cell-based. As to conditions: Homo sapiens, SK-MEL3, 72 h, 3 days, 4-parameter fit. The procedure, abridged:
as §3

SMILES strings stand for the structures. A value given as a limit tells only on which side of the number the result lay.

T1 sequence (P00533 25-1210): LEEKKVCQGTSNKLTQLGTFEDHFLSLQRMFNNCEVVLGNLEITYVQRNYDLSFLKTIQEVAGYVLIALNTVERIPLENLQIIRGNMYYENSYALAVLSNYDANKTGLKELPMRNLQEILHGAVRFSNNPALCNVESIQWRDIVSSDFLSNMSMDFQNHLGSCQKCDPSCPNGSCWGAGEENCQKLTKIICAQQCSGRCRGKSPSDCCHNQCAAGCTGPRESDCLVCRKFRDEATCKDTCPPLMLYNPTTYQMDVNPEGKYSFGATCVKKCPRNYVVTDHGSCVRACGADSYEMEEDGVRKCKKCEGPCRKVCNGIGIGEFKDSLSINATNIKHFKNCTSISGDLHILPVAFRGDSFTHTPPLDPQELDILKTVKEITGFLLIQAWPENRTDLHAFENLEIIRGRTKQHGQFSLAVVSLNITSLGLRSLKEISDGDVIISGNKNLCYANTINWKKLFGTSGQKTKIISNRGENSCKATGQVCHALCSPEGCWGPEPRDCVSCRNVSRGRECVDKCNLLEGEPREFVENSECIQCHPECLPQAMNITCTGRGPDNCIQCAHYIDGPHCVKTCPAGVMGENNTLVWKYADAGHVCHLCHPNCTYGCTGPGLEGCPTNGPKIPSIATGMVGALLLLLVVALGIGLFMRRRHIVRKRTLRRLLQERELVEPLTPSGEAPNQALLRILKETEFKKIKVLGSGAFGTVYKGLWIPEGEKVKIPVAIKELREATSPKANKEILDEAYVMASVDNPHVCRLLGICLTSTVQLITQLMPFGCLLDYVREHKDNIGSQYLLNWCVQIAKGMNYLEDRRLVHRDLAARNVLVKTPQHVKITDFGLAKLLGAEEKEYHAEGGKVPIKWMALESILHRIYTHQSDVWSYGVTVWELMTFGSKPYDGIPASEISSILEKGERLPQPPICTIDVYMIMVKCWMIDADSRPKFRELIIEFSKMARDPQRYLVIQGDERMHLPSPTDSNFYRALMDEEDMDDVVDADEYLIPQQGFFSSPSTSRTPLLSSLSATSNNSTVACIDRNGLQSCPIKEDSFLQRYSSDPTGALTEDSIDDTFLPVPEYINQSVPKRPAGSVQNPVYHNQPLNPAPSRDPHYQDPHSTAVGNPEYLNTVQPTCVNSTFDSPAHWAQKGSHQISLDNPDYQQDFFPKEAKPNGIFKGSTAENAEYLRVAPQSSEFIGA
T2 sequence (P04626 23-1255): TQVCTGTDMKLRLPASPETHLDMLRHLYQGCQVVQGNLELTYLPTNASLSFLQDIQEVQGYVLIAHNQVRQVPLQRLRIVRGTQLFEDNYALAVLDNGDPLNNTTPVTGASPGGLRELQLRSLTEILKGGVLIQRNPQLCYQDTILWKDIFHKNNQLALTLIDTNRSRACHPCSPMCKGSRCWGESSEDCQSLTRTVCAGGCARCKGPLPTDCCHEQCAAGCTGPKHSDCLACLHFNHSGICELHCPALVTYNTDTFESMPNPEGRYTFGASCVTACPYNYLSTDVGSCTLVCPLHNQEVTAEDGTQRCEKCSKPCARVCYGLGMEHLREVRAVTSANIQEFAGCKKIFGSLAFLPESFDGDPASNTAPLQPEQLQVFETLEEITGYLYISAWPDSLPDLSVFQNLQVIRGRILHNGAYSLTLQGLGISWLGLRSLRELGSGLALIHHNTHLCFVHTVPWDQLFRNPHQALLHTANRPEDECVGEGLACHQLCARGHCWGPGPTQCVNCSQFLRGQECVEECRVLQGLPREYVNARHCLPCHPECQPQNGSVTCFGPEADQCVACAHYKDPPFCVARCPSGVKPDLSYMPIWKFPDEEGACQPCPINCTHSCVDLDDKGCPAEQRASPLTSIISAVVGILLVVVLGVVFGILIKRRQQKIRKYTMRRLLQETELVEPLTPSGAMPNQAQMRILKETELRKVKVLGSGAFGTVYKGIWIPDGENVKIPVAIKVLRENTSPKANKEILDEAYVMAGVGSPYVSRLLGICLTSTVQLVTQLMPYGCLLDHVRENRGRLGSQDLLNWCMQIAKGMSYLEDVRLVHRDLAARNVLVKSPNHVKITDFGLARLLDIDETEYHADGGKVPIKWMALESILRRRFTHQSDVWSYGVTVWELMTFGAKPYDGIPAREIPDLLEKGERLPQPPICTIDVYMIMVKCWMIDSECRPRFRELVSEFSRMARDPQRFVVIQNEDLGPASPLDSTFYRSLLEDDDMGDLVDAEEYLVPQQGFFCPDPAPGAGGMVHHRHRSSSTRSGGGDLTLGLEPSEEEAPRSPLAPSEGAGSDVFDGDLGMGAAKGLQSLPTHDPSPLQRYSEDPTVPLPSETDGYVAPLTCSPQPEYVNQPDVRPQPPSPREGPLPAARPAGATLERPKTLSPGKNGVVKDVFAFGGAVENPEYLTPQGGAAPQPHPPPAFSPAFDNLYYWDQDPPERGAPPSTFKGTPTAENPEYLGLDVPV

As for `CN1CCc2ccc(Nc3nccc(-c4sc(N5CCCC5)nc4-c4cccc(NC(=O)c5c(F)cccc5F)c4)n3)cc2C1` [Example 44, 2,6-Difluoro-N-{3-[5-{2-[(2-methyl-1,2,3,4-tetrahydro-7-isoquinolinyl)amino]-4-pyrimidinyl}-2-(1-pyrrolidinyl)-1,3-thiazol-4-yl]phenyl}benzamide], the IC50 is < 100 nM on EGFR; < 100 nM at ErbB2; 100 to 1000 nM in the test with HN5 tumor cells; 100 to 1000 nM in the test with BT474 tumor cells; 100 to 1000 nM in the test with Colo205 tumor cells; 100 to 1000 nM in the test with SK-MEL-28 tumor cells. Also, the values for the IC50 in the test with A375P F11s tumor cells, in the test with HT-29 tumor cells and in the test with SK-MEL-3 tumor cells were > 1000 nM, 100 to 1000 nM and > 1000 nM, respectively.
Regarding `CN(C)CCOc1ccc(Nc2nccc(-c3sc(N4CCN(C)CC4)nc3-c3cccc(NC(=O)c4c(F)cccc4F)c3)n2)cc1Cl` [Example 45, N-{3-[5-{2-[(3-Chloro-4-{[2-(dimethylamino)ethyl]oxy}phenyl)amino]-4-pyrimidinyl}-2-(4-methyl-1-piperazinyl)-1,3-thiazol-4-yl]phenyl}-2,6-difluorobenzamide], the IC50 on EGFR was < 100 nM; at ErbB2, < 100 nM; in the test with HN5 tumor cells, 100 to 1000 nM; in the test with BT474 tumor cells it was 100 to 1000 nM; in the test on Colo205 tumor cells it was 100 to 1000 nM; in the test with SK-MEL-28 tumor cells, > 1000 nM. Moreover, the IC50 with A375P F11s tumor cells, in the test with HT-29 tumor cells and in the test on SK-MEL-3 tumor cells was 100 to 1000 nM each time.
With `CN(C)CCOc1ccc(Nc2nccc(-c3sc(N)nc3-c3cccc(NC(=O)c4cc(F)ccc4F)c3)n2)cc1Cl` [Example 56], the IC50 on EGFR was < 100 nM; at ErbB2, < 100 nM; in the test on HN5 tumor cells, < 100 nM; in the test with BT474 tumor cells it was < 100 nM; in the test with Colo205 tumor cells it was 100 to 1000 nM; in the test on SK-MEL-28 tumor cells, > 1000 nM. In addition, the IC50 in the test with A375P F11s tumor cells was 100 to 1000 nM; in the test with HT-29 tumor cells, 100 to 1000 nM; in the test on SK-MEL-3 tumor cells, > 1000 nM.
For `CN(C)CCOc1ccc(Nc2nccc(-c3sc(N)nc3-c3ccc(F)c(NC(=O)c4c(F)cccc4F)c3)n2)cc1Cl` [Example 67], the IC50 on EGFR was < 100 nM; at ErbB2, < 100 nM; in the test on HN5 tumor cells, < 100 nM; in the test with BT474 tumor cells, < 100 nM; in the test on Colo205 tumor cells, < 100 nM; with SK-MEL-28 tumor cells, 100 to 1000 nM. Moreover, the IC50 in the test with A375P F11s tumor cells, with HT-29 tumor cells and in the test with SK-MEL-3 tumor cells was 100 to 1000 nM each time.
`CN(C)CCOc1ccc(Nc2nccc(-c3sc(N)nc3-c3cc(NC(=O)c4c(F)cccc4F)ccc3F)n2)cc1Cl` [Example 68, N-[3-(2-Amino-5-{2-[(3-chloro-4-{[2-(dimethylamino)ethyl]oxy}phenyl)amino]-4-pyrimidinyl}-1,3-thiazol-4-yl)-4-fluorophenyl]-2,6-difluorobenzamide]: the concentration for half-maximal inhibition (IC50) is < 100 nM on EGFR; < 100 nM on ErbB2; < 100 nM in the test with HN5 tumor cells; < 100 nM with BT474 tumor cells; 100 to 1000 nM in the test with Colo205 tumor cells; 100 to 1000 nM in the test on SK-MEL-28 tumor cells. Besides, the IC50 in the test with A375P F11s tumor cells, in the test with HT-29 tumor cells and in the test on SK-MEL-3 tumor cells was 100 to 1000 nM each time.
Take `CN(C)CCOc1ccc(Nc2nccc(-c3sc(N4CCCCC4)nc3-c3cccc(NC(=O)c4c(F)cccc4F)c3)n2)cc1Cl` [Example 72, N-{3-[5-{2-[(3-Chloro-4-{[2-(dimethylamino)ethyl]oxy}phenyl)amino]-4-pyrimidinyl}-2-(1-piperidinyl)-1,3-thiazol-4-yl]phenyl}-2,6-difluorobenzamide]: the IC50 on EGFR is < 100 nM; on ErbB2 it was < 100 nM; in the test with HN5 tumor cells it was 100 to 1000 nM; in the test on BT474 tumor cells, > 1000 nM; with Colo205 tumor cells, > 1000 nM; in the test with SK-MEL-28 tumor cells, > 1000 nM. In addition, the IC50 is > 1000 nM in the test on A375P F11s tumor cells, 100 to 1000 nM in the test on HT-29 tumor cells and > 1000 nM in the test with SK-MEL-3 tumor cells.
For `CN(C)CCOc1ccc(Nc2nccc(-c3sc(N)nc3-c3cccc(C(=O)Nc4c(F)cccc4F)c3)n2)cc1Cl` [Example 75, 3-(2-Amino-5-{2-[(3-chloro-4-{[2-(dimethylamino)ethyl]oxy}phenyl)amino]-4-pyrimidinyl}-1,3-thiazol-4-yl)-N-(2,6-difluorophenyl)benzamide], the IC50 at EGFR is < 100 nM; at ErbB2 it was < 100 nM; with HN5 tumor cells it was 100 to 1000 nM; with BT474 tumor cells it was < 100 nM; in the test on Colo205 tumor cells, 100 to 1000 nM; in the test on SK-MEL-28 tumor cells it was > 1000 nM. Moreover, the IC50 in the test on A375P F11s tumor cells, with HT-29 tumor cells and with SK-MEL-3 tumor cells was 100 to 1000 nM each time.
In the case of `CN(C)CCOc1cccc(Nc2nccc(-c3scnc3-c3cccc(NC(=O)c4c(F)cccc4F)c3)n2)c1` [Example 79, N-[3-(5-{2-[(3-{[2-(Dimethylamino)ethyl]oxy}phenyl)amino]-4-pyrimidinyl}-1,3-thiazol-4-yl)phenyl]-2,6-difluorobenzamide-formic acid], the half-maximal inhibitory concentration (IC50) at EGFR was < 100 nM; at ErbB2, < 100 nM; in the test on HN5 tumor cells it was < 100 nM; with BT474 tumor cells, < 100 nM; in the test on Colo205 tumor cells it was 100 to 1000 nM; in the test on SK-MEL-28 tumor cells, > 1000 nM. Also, the IC50 with A375P F11s tumor cells was 100 to 1000 nM; in the test on HT-29 tumor cells, 100 to 1000 nM; in the test with SK-MEL-3 tumor cells, > 1000 nM.
In the case of `CS(=O)(=O)CCN1CCN(c2ccc(Nc3nccc(-c4scnc4-c4cccc(NC(=O)c5c(F)cccc5F)c4)n3)cc2F)CC1` [Example 80, 2,6-Difluoro-N-[3-(5-{2-[(3-fluoro-4-{4-[2-(methylsulfonyl)ethyl]-1-piperazinyl}phenyl)amino]-4-pyrimidinyl}-1,3-thiazol-4-yl)phenyl]benzamide], the IC50 at EGFR is < 100 nM; on ErbB2, < 100 nM; in the test on HN5 tumor cells, < 100 nM; in the test with BT474 tumor cells, < 100 nM; in the test with Colo205 tumor cells, > 1000 nM; in the test on SK-MEL-28 tumor cells, 100 to 1000 nM. In addition, the IC50 with A375P F11s tumor cells, in the test on HT-29 tumor cells and in the test with SK-MEL-3 tumor cells was 100 to 1000 nM throughout.
`CN(C)CCOc1cccc(Nc2nccc(-c3scnc3-c3cccc(NC(=O)Cc4cccs4)c3)n2)c1` [Example 84, N-[3-(5-{2-[(3-{[2-(Dimethylamino)ethyl]oxy}phenyl)amino]-4-pyrimidinyl}-1,3-thiazol-4-yl)phenyl]-2-(2-thienyl)acetamide]: the IC50 at EGFR is < 100 nM; on ErbB2, < 100 nM; with HN5 tumor cells, > 1000 nM; in the test on BT474 tumor cells, > 1000 nM; in the test with Colo205 tumor cells, > 1000 nM; with SK-MEL-28 tumor cells, > 1000 nM. In addition, the IC50 in the test on A375P F11s tumor cells, in the test on HT-29 tumor cells and with SK-MEL-3 tumor cells was > 1000 nM each time.
`CN(C)Cc1cccc(Nc2nccc(-c3scnc3-c3cccc(NC(=O)c4c(F)cccc4F)c3)n2)c1` [Example 90, N-(3-{5-[2-({3-[(Dimethylamino)methyl]-phenyl}amino)-4-pyrimidinyl]-1,3-thiazol-4-yl}phenyl)-2,6-difluorobenzamide-formic acid]: the IC50 on EGFR is < 100 nM; on ErbB2, < 100 nM; in the test with HN5 tumor cells, 100 to 1000 nM; in the test with BT474 tumor cells, < 100 nM; in the test with Colo205 tumor cells, 100 to 1000 nM; in the test on SK-MEL-28 tumor cells, > 1000 nM. In addition, the IC50 in the test on A375P F11s tumor cells is 100 to 1000 nM; in the test with HT-29 tumor cells it was 100 to 1000 nM; in the test on SK-MEL-3 tumor cells, > 1000 nM.
Consider `COc1ccc(Nc2nccc(-c3scnc3-c3cccc(NC(=O)c4c(F)cccc4F)c3)n2)cc1N1CCN(C)CC1` [Example 93, 2,6-Difluoro-N-{3-[5-(2-{[4-(methyloxy)-3-(4-methyl-1-piperazinyl)phenyl]amino}-4-pyrimidinyl)-1,3-thiazol-4-yl]phenyl}benzamide], for which the 50% inhibitory concentration (IC50) on EGFR was < 100 nM; at ErbB2, < 100 nM; in the test on HN5 tumor cells, < 100 nM; in the test with BT474 tumor cells, < 100 nM; with Colo205 tumor cells, 100 to 1000 nM; with SK-MEL-28 tumor cells, 100 to 1000 nM. Moreover, the IC50 in the test on A375P F11s tumor cells, in the test on HT-29 tumor cells and with SK-MEL-3 tumor cells was 100 to 1000 nM in each case.
`O=C(Nc1cccc(-c2ncsc2-c2ccnc(Nc3cccc(CN4CCCC4)c3)n2)c1)c1c(F)cccc1F` [Example 94, 2,6-Difluoro-N-{3-[5-(2-{[3-(1-pyrrolidinylmethyl)phenyl]amino}-4-pyrimidinyl)-1,3-thiazol-4-yl]phenyl}benzamide]: the IC50 at EGFR is < 100 nM; at ErbB2 it was < 100 nM; with HN5 tumor cells, < 100 nM; in the test on BT474 tumor cells, < 100 nM; in the test with Colo205 tumor cells it was 100 to 1000 nM; in the test on SK-MEL-28 tumor cells, > 1000 nM. For the same compound, the IC50 in the test on A375P F11s tumor cells is > 1000 nM; in the test on HT-29 tumor cells, 100 to 1000 nM; in the test on SK-MEL-3 tumor cells, 100 to 1000 nM.

Broadly, the IC50 is the midpoint of a concentration-inhibition curve.
